Measurements reported in patent US10428060B2, “PI-kinase inhibitors with anti-infective activity” (The Board of Trustees of the Leland Stanford Junior …, priority 2011, dated 2019).

Legend:
PI3K p110g = molecular target: T1, PI3K p110g (Homo sapiens, UniProt P48736); test: PI3K p110g kinase assay; assay type: biochemical
T1 construct: purchased Millipore

PI3KC2G = molecular target: T2, PI3KC2G (Homo sapiens, UniProt O75747); test: PI3KC2G kinase assay; assay type: biochemical
T2 sequence (O75747 1-1486): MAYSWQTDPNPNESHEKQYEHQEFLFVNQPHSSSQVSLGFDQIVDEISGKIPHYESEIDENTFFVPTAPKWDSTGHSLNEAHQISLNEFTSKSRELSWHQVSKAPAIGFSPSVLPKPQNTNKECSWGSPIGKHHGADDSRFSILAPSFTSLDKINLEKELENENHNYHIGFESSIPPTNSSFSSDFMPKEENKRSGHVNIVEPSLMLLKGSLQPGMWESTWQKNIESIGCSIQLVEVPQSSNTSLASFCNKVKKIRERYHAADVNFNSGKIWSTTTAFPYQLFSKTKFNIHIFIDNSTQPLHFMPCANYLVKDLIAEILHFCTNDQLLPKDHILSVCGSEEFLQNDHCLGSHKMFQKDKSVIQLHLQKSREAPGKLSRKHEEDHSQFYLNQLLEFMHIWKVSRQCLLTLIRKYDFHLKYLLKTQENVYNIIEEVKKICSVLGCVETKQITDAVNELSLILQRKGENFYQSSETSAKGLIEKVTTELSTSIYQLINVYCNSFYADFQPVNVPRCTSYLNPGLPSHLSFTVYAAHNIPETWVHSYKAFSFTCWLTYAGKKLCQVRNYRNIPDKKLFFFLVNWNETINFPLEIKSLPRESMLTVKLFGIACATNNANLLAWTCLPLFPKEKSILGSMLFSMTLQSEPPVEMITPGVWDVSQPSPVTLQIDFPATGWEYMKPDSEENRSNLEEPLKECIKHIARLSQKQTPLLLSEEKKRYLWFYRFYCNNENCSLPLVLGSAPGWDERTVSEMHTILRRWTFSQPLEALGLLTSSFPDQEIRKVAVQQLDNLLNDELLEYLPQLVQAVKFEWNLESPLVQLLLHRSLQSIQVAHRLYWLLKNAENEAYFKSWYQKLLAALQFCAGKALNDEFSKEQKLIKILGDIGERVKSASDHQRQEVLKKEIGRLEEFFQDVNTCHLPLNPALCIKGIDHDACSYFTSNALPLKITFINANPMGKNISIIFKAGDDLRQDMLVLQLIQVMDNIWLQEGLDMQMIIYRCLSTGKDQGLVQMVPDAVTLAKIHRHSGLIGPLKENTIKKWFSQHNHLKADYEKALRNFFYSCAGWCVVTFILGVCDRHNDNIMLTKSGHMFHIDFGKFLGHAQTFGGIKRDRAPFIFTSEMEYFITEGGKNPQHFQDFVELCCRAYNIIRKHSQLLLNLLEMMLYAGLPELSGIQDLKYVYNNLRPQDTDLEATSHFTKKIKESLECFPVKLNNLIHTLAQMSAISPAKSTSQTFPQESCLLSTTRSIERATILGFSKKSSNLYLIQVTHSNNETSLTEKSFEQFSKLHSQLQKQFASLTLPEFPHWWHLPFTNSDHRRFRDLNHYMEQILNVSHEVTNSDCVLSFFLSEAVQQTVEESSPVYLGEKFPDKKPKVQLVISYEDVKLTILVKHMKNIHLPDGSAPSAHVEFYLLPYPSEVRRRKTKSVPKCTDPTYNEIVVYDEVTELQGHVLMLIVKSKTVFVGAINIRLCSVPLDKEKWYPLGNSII

HRV = test: Rhinovirus antiviral assay; assay type: cell-based; details: Human rhinovirus sp.

T1 sequence (P48736 whole entry): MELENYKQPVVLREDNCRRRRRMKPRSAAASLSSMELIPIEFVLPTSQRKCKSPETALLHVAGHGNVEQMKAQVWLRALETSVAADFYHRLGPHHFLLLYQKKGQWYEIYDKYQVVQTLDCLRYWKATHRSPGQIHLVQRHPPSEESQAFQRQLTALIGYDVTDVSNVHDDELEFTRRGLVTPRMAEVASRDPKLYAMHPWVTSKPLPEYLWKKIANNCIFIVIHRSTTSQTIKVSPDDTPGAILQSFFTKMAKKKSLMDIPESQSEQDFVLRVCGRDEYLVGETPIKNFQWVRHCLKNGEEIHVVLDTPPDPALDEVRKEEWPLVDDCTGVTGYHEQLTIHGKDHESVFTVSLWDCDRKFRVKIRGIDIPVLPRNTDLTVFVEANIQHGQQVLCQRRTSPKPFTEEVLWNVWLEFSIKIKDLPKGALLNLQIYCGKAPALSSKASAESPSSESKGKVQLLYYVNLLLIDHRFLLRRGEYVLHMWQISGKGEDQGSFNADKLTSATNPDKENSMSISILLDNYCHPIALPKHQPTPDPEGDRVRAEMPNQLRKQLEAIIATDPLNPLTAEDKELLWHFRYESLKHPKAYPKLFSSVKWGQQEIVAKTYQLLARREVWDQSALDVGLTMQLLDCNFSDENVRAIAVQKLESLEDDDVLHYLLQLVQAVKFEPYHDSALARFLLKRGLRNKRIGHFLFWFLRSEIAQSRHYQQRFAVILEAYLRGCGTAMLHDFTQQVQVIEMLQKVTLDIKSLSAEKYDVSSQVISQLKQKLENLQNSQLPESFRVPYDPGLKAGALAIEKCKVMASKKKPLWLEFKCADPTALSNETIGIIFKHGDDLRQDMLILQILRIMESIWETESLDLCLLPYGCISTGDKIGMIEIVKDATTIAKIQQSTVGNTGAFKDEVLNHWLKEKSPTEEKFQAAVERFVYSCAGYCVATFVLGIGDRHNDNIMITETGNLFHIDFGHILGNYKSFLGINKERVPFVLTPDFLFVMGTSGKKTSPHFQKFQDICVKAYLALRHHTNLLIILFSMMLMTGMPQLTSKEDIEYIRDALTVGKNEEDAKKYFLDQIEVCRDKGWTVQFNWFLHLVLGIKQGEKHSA

COc1ncc(-c2sc(NC(=O)CC3CCOCC3)nc2C)cc1S(=O)(=O)NC1CCCC(O)C1 (stereo not drawn) [Compound S-263]
IC50 (PI3K p110g): 1 to 10 µM | IC50 (PI3KC2G): 0.1 to 1 µM | EC50 (HRV): 1 to 10 µM
